Results as given in PubChem BioAssay (NCI).
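The compound was tested at five concentrations on cells cultured in 96-well plates, with a 48-hour exposure period. TGI marks complete inhibition of growth.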

Columns and labels:
Test in all cases: NCI tumour cell line growth inhibition, 48 h
SK-OV-3 ovarian = tested on: SK-OV-3 ovarian
SK-MEL-2 melanoma = tested on: SK-MEL-2 melanoma
U251 CNS = tested on: U251 CNS
SF-268 CNS = tested on: SF-268 CNS
CCRF-CEM leukemia = tested on: CCRF-CEM leukemia
SK-MEL-5 melanoma = tested on: SK-MEL-5 melanoma
SNB-78 CNS = tested on: SNB-78 CNS
KM20L2 colon = tested on: KM20L2 colon
HOP-18 NSCLC = tested on: HOP-18 NSCLC
UO-31 renal = tested on: UO-31 renal
DMS 273 small cell lung = tested on: DMS 273 small cell lung
RXF 393 renal = tested on: RXF 393 renal
UACC-257 melanoma = tested on: UACC-257 melanoma
TK-10 renal = tested on: TK-10 renal
LOX IMVI melanoma = tested on: LOX IMVI melanoma
OVCAR-8 ovarian = tested on: OVCAR-8 ovarian
OVCAR-5 ovarian = tested on: OVCAR-5 ovarian
KM12 colon = tested on: KM12 colon
MALME-3M melanoma = tested on: MALME-3M melanoma
HCT-116 colon = tested on: HCT-116 colon
XF 498 CNS = tested on: XF 498 CNS
MOLT-4 leukemia = tested on: MOLT-4 leukemia
IGROV1 ovarian = tested on: IGROV1 ovarian
RPMI-8226 leukemia = tested on: RPMI-8226 leukemia
NCI-H23 lung = tested on: NCI-H23 lung
SF-539 CNS = tested on: SF-539 CNS
HCT-15 colon = tested on: HCT-15 colon
K-562 leukemia = tested on: K-562 leukemia
NCI-H226 lung = tested on: NCI-H226 lung
CAKI-1 renal = tested on: CAKI-1 renal
SK-MEL-28 melanoma = tested on: SK-MEL-28 melanoma
SNB-75 CNS = tested on: SNB-75 CNS
HOP-92 NSCLC = tested on: HOP-92 NSCLC
NCI-H460 lung = tested on: NCI-H460 lung
EKVX NSCLC = tested on: EKVX NSCLC
HCC-2998 colon = tested on: HCC-2998 colon
SF-295 CNS = tested on: SF-295 CNS
DMS 114 small cell lung = tested on: DMS 114 small cell lung
SN12C renal = tested on: SN12C renal
SNB-19 CNS = tested on: SNB-19 CNS
SR leukemia = tested on: SR leukemia
HL-60(TB) leukemia = tested on: HL-60(TB) leukemia
OVCAR-4 ovarian = tested on: OVCAR-4 ovarian
M19-MEL melanoma = tested on: M19-MEL melanoma
SW-620 colon = tested on: SW-620 colon
A549 NSCLC = tested on: A549 NSCLC
DLD-1 colon = tested on: DLD-1 colon
M14 melanoma = tested on: M14 melanoma
COLO 205 colon = tested on: COLO 205 colon
ACHN renal = tested on: ACHN renal
LXFL 529 NSCLC = tested on: LXFL 529 NSCLC
HOP-62 NSCLC = tested on: HOP-62 NSCLC
HT29 colon = tested on: HT29 colon
A498 renal = tested on: A498 renal
786-0 renal = tested on: 786-0 renal
OVCAR-3 ovarian = tested on: OVCAR-3 ovarian
UACC-62 melanoma = tested on: UACC-62 melanoma
RXF-631 renal = tested on: RXF-631 renal
NCI-H522 lung = tested on: NCI-H522 lung

Measured: TGI

O=C(O)C(Cl)(Cl)Cl
> 100 µM: SK-OV-3 ovarian | SK-MEL-2 melanoma | U251 CNS | SF-268 CNS | CCRF-CEM leukemia | SK-MEL-5 melanoma | SNB-78 CNS | KM20L2 colon | HOP-18 NSCLC | UO-31 renal | DMS 273 small cell lung | RXF 393 renal | UACC-257 melanoma | TK-10 renal | LOX IMVI melanoma | OVCAR-8 ovarian | OVCAR-5 ovarian | KM12 colon | MALME-3M melanoma | HCT-116 colon | XF 498 CNS | MOLT-4 leukemia | IGROV1 ovarian | RPMI-8226 leukemia | NCI-H23 lung | SF-539 CNS | HCT-15 colon | K-562 leukemia | NCI-H226 lung | CAKI-1 renal | SK-MEL-28 melanoma | SNB-75 CNS | HOP-92 NSCLC | NCI-H460 lung | EKVX NSCLC | HCC-2998 colon | SF-295 CNS | DMS 114 small cell lung | SN12C renal | SNB-19 CNS | SR leukemia | HL-60(TB) leukemia | OVCAR-4 ovarian | M19-MEL melanoma | SW-620 colon | A549 NSCLC | DLD-1 colon | M14 melanoma | COLO 205 colon | ACHN renal | LXFL 529 NSCLC

O=C(OC1CCC(=C2SCCCS2)[C@H]1C1SCCCS1)c1ccccc1 (some centres not stated)
> 100 µM: SK-OV-3 ovarian | SK-MEL-2 melanoma | U251 CNS | HOP-62 NSCLC | CCRF-CEM leukemia | KM20L2 colon | UO-31 renal | DMS 273 small cell lung | RXF 393 renal | UACC-257 melanoma | TK-10 renal | LOX IMVI melanoma | OVCAR-8 ovarian | HT29 colon | KM12 colon | MALME-3M melanoma | HCT-116 colon | MOLT-4 leukemia | IGROV1 ovarian | RPMI-8226 leukemia | NCI-H23 lung | SF-539 CNS | A498 renal | HCT-15 colon | K-562 leukemia | NCI-H226 lung | 786-0 renal | OVCAR-3 ovarian | HOP-92 NSCLC | NCI-H460 lung | EKVX NSCLC | HCC-2998 colon | SF-295 CNS | DMS 114 small cell lung | SN12C renal | SNB-19 CNS | HL-60(TB) leukemia | OVCAR-4 ovarian | M19-MEL melanoma | SW-620 colon | A549 NSCLC | DLD-1 colon | M14 melanoma | COLO 205 colon | UACC-62 melanoma | ACHN renal | LXFL 529 NSCLC | RXF-631 renal

O=C(O)COc1ccccc1C(=O)Nc1ccccc1
> 100 µM: SK-OV-3 ovarian | SK-MEL-2 melanoma | U251 CNS | NCI-H522 lung | HOP-62 NSCLC | SF-268 CNS | CCRF-CEM leukemia | SK-MEL-5 melanoma | SNB-78 CNS | KM20L2 colon | UO-31 renal | DMS 273 small cell lung | UACC-257 melanoma | TK-10 renal | LOX IMVI melanoma | OVCAR-8 ovarian | HT29 colon | OVCAR-5 ovarian | KM12 colon | MALME-3M melanoma | HCT-116 colon | XF 498 CNS | MOLT-4 leukemia | IGROV1 ovarian | RPMI-8226 leukemia | NCI-H23 lung | SF-539 CNS | HCT-15 colon | K-562 leukemia | NCI-H226 lung | 786-0 renal | CAKI-1 renal | OVCAR-3 ovarian | SK-MEL-28 melanoma | SNB-75 CNS | HOP-92 NSCLC | NCI-H460 lung | EKVX NSCLC | SF-295 CNS | SN12C renal | SNB-19 CNS | SR leukemia | HL-60(TB) leukemia | OVCAR-4 ovarian | M19-MEL melanoma | SW-620 colon | A549 NSCLC | DLD-1 colon | M14 melanoma | COLO 205 colon | UACC-62 melanoma | ACHN renal | LXFL 529 NSCLC
